Measured values published in patent US8829007B2 (priority 2009, dated 2014).
pIC50: −log10 of the molar value. Where two headings read alike, the source gives them in different places.

System: influenza A virus (A/PR/8/34)
Assay: microbe, parasite or virus in culture
Type: cell-based
Details: Influenza A virus, PR/8, MDCK, read-out: IC50 (mean all)
[1] = MDCK cells infected with A/PR/8/34, cell protection (CPE)

SMILES | pIC50 [1] | pIC50
CC(C)(C)CC(=O)N1CCC[C@@H](CNc2nc(-c3c[nH]c4ncc(Cl)cc34)ncc2F)C1 [Compound 42, (S)-1-(3-((2-(5-chloro-1H-pyrrolo[2,3-b]pyridin-3-yl)-5-fluoropyrimidin-4-ylamino)methyl)piperidin-1-yl)-3,3-dimethylbutan-1-one] | < 4.70 | –
C[N+](C)(C)CC(=O)N1CCC[C@@H](CNc2nc(-c3c[nH]c4ncc(Cl)cc34)ncc2F)C1 [Compound 43, (S)-2-(3-((2-(5-chloro-1H-pyrrolo[2,3-b]pyridin-3-yl)-5-fluoropyrimidin-4-ylamino)methyl)piperidin-1-yl)-N,N,N-trimethyl-2-oxoethanaminium] | < 4.70 | –
CN(C)CC(=O)N1CCC[C@@H](CNc2nc(-c3c[nH]c4ncc(Cl)cc34)ncc2F)C1 [Compound 46, (S)-1-(3-((2-(5-chloro-1H-pyrrolo[2,3-b]pyridin-3-yl)-5-fluoropyrimidin-4-ylamino)methyl)piperidin-1-yl)-2-(dimethylamino)ethanone] | < 4.70 | –
O=C(Cn1cnnn1)N1CCC[C@@H](CNc2nc(-c3c[nH]c4ncc(Cl)cc34)ncc2F)C1 [Compound 48, (S)-1-(3-((2-(5-chloro-1H-pyrrolo[2,3-b]pyridin-3-yl)-5-fluoropyrimidin-4-ylamino)methyl)piperidin-1-yl)-2-(1H-tetrazol-1-yl)ethanone] | < 4.70 | –
O=C(Cn1ccnc1)N1CCC[C@@H](CNc2nc(-c3c[nH]c4ncc(Cl)cc34)ncc2F)C1 [Compound 50, (S)-1-(3-((2-(5-chloro-1H-pyrrolo[2,3-b]pyridin-3-yl)-5-fluoropyrimidin-4-ylamino)methyl)piperidin-1-yl)-2-(1H-imidazol-1-yl)ethanone] | < 4.70 | –
O=C(O)CCCC(=O)N1CCC[C@H](CNc2nc(-c3c[nH]c4ncc(Cl)cc34)ncc2F)C1 [Compound 53, (R)-5-(3-((2-(5-chloro-1H-pyrrolo[2,3-b]pyridin-3-yl)-5-fluoropyrimidin-4-ylamino)methyl)piperidin-1-yl)-5-oxopentanoic acid] | 4.70 to 5.30 | –
O=C(O)COCC(=O)N1CCC[C@H](CNc2nc(-c3c[nH]c4ncc(Cl)cc34)ncc2F)C1 [Compound 54, (R)-2-(2-(3-((2-(5-chloro-1H-pyrrolo[2,3-b]pyridin-3-yl)-5-fluoropyrimidin-4-ylamino)methyl)piperidin-1-yl)-2-oxoethoxy)ethanoic acid] | 4.70 to 5.30 | –
O=C(c1ccccc1F)N1CCC[C@H](CNc2nc(-c3c[nH]c4ncc(Cl)cc34)ncc2F)C1 [Compound 58, (R)-(3-((2-(5-chloro-1H-pyrrolo[2,3-b]pyridin-3-yl)-5-fluoropyrimidin-4-ylamino)methyl)piperidin-1-yl)(2-fluorophenyl)methanone] | > 5.30 | –
COC(=O)c1ccc(OC(=O)N2CCC[C@H](CNc3nc(-c4c[nH]c5ncc(Cl)cc45)ncc3F)C2)cc1 [Compound 63, (R)-4-(methoxycarbonyl)phenyl 3-((2-(5-chloro-1H-pyrrolo[2,3-b]pyridin-3-yl)-5-fluoropyrimidin-4-ylamino)methyl)piperidine-1-carboxylate] | – | < 4.70
Cc1ccc(OC(=O)N2CCC[C@H](CNc3nc(-c4c[nH]c5ncc(Cl)cc45)ncc3F)C2)cc1 [Compound 71, (R)-p-tolyl 3-((2-(5-chloro-1H-pyrrolo[2,3-b]pyridin-3-yl)-5-fluoropyrimidin-4-ylamino)methyl)piperidine-1-carboxylate] | – | 4.70 to 5.30
O=C(Oc1cccc(C(F)(F)F)c1)N1CCC[C@H](CNc2nc(-c3c[nH]c4ncc(Cl)cc34)ncc2F)C1 [Compound 72, (R)-3-(trifluoromethyl)phenyl 3-((2-(5-chloro-1H-pyrrolo[2,3-b]pyridin-3-yl)-5-fluoropyrimidin-4-ylamino)methyl)piperidine-1-carboxylate] | – | 4.70 to 5.30
O=C(Oc1ccc(F)cc1)N1CCC[C@H](CNc2nc(-c3c[nH]c4ncc(Cl)cc34)ncc2F)C1 [Compound 73, (R)-4-fluorophenyl 3-((2-(5-chloro-1H-pyrrolo[2,3-b]pyridin-3-yl)-5-fluoropyrimidin-4-ylamino)methyl)piperidine-1-carboxylate] | – | 4.70 to 5.30
CC(=O)c1cccc(NC(=O)N2CCC[C@H](CNc3nc(-c4c[nH]c5ncc(Cl)cc45)ncc3F)C2)c1 [Compound 77, (R)-3-((2-(5-chloro-1H-pyrrolo[2,3-b]pyridin-3-yl)-5-fluoropyrimidin-4-ylamino)methyl)-N-(3-ethanoylphenyl)piperidine-1-carboxamide] | 4.70 to 5.30 | –
O=C(Nc1cccc(C(F)(F)F)c1)N1CCC[C@H](CNc2nc(-c3c[nH]c4ncc(Cl)cc34)ncc2F)C1 [Compound 79, (R)-3-((2-(5-chloro-1H-pyrrolo[2,3-b]pyridin-3-yl)-5-fluoropyrimidin-4-ylamino)methyl)-N-(3-(trifluoromethyl)phenyl)piperidine-1-carboxamide] | 4.70 to 5.30 | –
O=C(O)c1nccnc1C(=O)N1CCC[C@H](CNc2nc(-c3c[nH]c4ncc(Cl)cc34)ncc2F)C1 [Compound 82, (R)-3-(3-((2-(5-chloro-1H-pyrrolo[2,3-b]pyridin-3-yl)-5-fluoropyrimidin-4-ylamino)methyl)piperidine-1-carbonyl)pyrazine-2-carboxylic acid] | < 4.70 | –
O=C(O)[C@H]1C[C@H]1C(=O)N1CCC[C@H](CNc2nc(-c3c[nH]c4ncc(Cl)cc34)ncc2F)C1 [Compound 83, (1S,2R)-2-((R)-3-((2-(5-chloro-1H-pyrrolo[2,3-b]pyridin-3-yl)-5-fluoropyrimidin-4-ylamino)methyl)piperidine-1-carbonyl)cyclopropanecarboxylic acid] | < 4.70 | –

SMILES | pIC50 [1] | pIC50
O=C(c1c(Cl)cccc1Cl)N1CCC[C@H](CNc2nc(-c3c[nH]c4ncc(Cl)cc34)ncc2F)C1 [Compound 96, (R)-(3-((2-(5-chloro-1H-pyrrolo[2,3-b]pyridin-3-yl)-5-fluoropyrimidin-4-ylamino)methyl)piperidin-1-yl)(2,6-dichlorophenyl)methanone] | 4.70 to 5.30 | –
O=C(c1ccc2c(c1)OCO2)N1CCC[C@H](CNc2nc(-c3c[nH]c4ncc(Cl)cc34)ncc2F)C1 [Compound 103, (R)-benzo[d][1,3]dioxol-5-yl(3-((2-(5-chloro-1H-pyrrolo[2,3-b]pyridin-3-yl)-5-fluoropyrimidin-4-ylamino)methyl)piperidin-1-yl)methanone] | > 5.30 | –
CC(C)(C)OC(=O)N1CCC[C@H](CNc2nc(-c3c[nH]c4ncc(N)cc34)ncc2F)C1 [Compound 114, (R)-tert-butyl 3-((2-(5-amino-1H-pyrrolo[2,3-b]pyridin-3-yl)-5-fluoropyrimidin-4-ylamino)methyl)piperidine-1-carboxylate] | < 4.70 | –
N[C@@H]1CCCC[C@H]1Nc1nc(-c2c[nH]c3ncc(Cl)cc23)ncc1Cl [Compound 115, (1R,2R)—N1-(5-chloro-2-(5-chloro-1H-pyrrolo[2,3-b]pyridin-3-yl)pyrimidin-4-yl)cyclohexane-1,2-diamine] | < 4.70 | –
Cc1cnc(-c2c[nH]c3ncc(Cl)cc23)nc1NC1CCCCC1N (stereo not shown) [Compound 116, N1-(2-(5-chloro-1H-pyrrolo[2,3-b]pyridin-3-yl)-5-methylpyrimidin-4-yl)cyclohexane-1,2-diamine] | < 4.70 | –
CCOC(=O)CCNC(=O)N1CCC[C@H](CNc2nc(-c3c[nH]c4ncc(Cl)cc34)ncc2F)C1 [Compound 118, (R)-ethyl 3-(3-((2-(5-chloro-1H-pyrrolo[2,3-b]pyridin-3-yl)-5-fluoropyrimidin-4-ylamino)methyl)piperidine-1-carboxamido)propanoate] | 4.70 to 5.30 | –
Cc1csc(NC(=O)N2CCC[C@H](CNc3nc(-c4c[nH]c5ncc(Cl)cc45)ncc3F)C2)c1 [Compound 130, (R)-3-((2-(5-chloro-1H-pyrrolo[2,3-b]pyridin-3-yl)-5-fluoropyrimidin-4-ylamino)methyl)-N-(4-methylthiophen-2-yl)piperidine-1-carboxamide] | > 5.30 | –
COC(CN1CCC[C@@H](CNc2nc(-c3c[nH]c4ncc(Cl)cc34)ncc2F)C1)OC [Compound 132, (S)-2-(5-chloro-1H-pyrrolo[2,3-b]pyridin-3-yl)-N-((1-(2,2-dimethoxyethyl)piperidin-3-yl)methyl)-5-fluoropyrimidin-4-amine] | < 4.70 | –
OCCN1CCC[C@@H](CNc2nc(-c3c[nH]c4ncc(Cl)cc34)ncc2F)C1 [Compound 133, (S)-2-(3-((2-(5-chloro-1H-pyrrolo[2,3-b]pyridin-3-yl)-5-fluoropyrimidin-4-ylamino)methyl)piperidin-1-yl)ethanol] | < 4.70 | –
Fc1cnc(-c2c[nH]c3ncc(Cl)cc23)nc1NC[C@@H]1CCCN(CC2CCCCC2)C1 [Compound 134, (S)-2-(5-chloro-1H-pyrrolo[2,3-b]pyridin-3-yl)-N-((1-(cyclohexylmethyl)piperidin-3-yl)methyl)-5-fluoropyrimidin-4-amine] | 4.70 to 5.30 | –
C[C@H](CO)CN1CCCC(CNc2nc(-c3c[nH]c4ncc(Cl)cc34)ncc2F)C1 (stereo partly shown) [Compound 135] | < 4.70 | –
Cc1cccc(CN2CCC[C@@H](CNc3nc(-c4c[nH]c5ncc(Cl)cc45)ncc3F)C2)c1 [Compound 137, (S)-2-(5-chloro-1H-pyrrolo[2,3-b]pyridin-3-yl)-5-fluoro-N-((1-(3-methylbenzyl)piperidin-3-yl)methyl)pyrimidin-4-amine] | < 4.70 | –
COC(=O)/C=C/CN1CCC[C@@H](CNc2nc(-c3c[nH]c4ncc(Cl)cc34)ncc2F)C1 [Compound 138, (S,E)-methyl 4-(3-((2-(5-chloro-1H-pyrrolo[2,3-b]pyridin-3-yl)-5-fluoropyrimidin-4-ylamino)methyl)piperidin-1-yl)but-2-enoate] | – | < 4.70
Cc1ccccc1CN1CCC[C@@H](CNc2nc(-c3c[nH]c4ncc(Cl)cc34)ncc2F)C1 [Compound 139, (S)-2-(5-chloro-1H-pyrrolo[2,3-b]pyridin-3-yl)-5-fluoro-N-((1-(2-methylbenzyl)piperidin-3-yl)methyl)pyrimidin-4-amine] | < 4.70 | –
CC(C)(C)C(=O)CN1CCC[C@@H](CNc2nc(-c3c[nH]c4ncc(Cl)cc34)ncc2F)C1 [Compound 140, (S)-1-(3-((2-(5-chloro-1H-pyrrolo[2,3-b]pyridin-3-yl)-5-fluoropyrimidin-4-ylamino)methyl)piperidin-1-yl)-3,3-dimethylbutan-2-one] | < 4.70 | –
